16 compounds from PubChem BioAssay AID248 (DTP/NCI, 2004) can be followed below.

Where “and” joins values, the source holds several entries; their conditions need not be identical. Identical values can stand only once. Inconclusive results and toxic doses are left out.

The test system of the assay is L1210 leukemia ip in BDF1 mice, survival T/C. As to the kind of experiment: NCI In Vivo Anticancer Drug Screen. Data for tumor model L1210 Leukemia (intraperitoneal) in B6D2F1 (BDF1) mice. The settings on record: endpoint: mean survival time, higher = longer survival. The essentials:
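Ratio derived from survival: compound-dosed mice over vehicle-dosed mice, all bearing a transplantable tumor.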

[1] abbreviates: dose: 100.0 mg/kg/injection, schedule: Q01DX001 (ip), vehicle: saline.
[2] abbreviates: dose: 200.0 mg/kg/injection, schedule: Q01DX001 (ip), vehicle: saline.
Setting [3] is: dose: 100.0 mg/kg/injection, schedule: Q04DX003 (ip), vehicle: saline with Tween-80.
Where [4] appears, read: dose: 200.0 mg/kg/injection, schedule: Q04DX003 (ip), vehicle: saline with Tween-80.
Where [5] appears, read: dose: 100.0 mg/kg/injection, schedule: Q01DX009 (ip), vehicle: Klucel (hydroxypropylcellulose) (HPC).
Where [6] appears, read: dose: 100.0 mg/kg/injection, schedule: Q04DX003 (ip), vehicle: Klucel (hydroxypropylcellulose) (HPC).
Setting [7] is: dose: 200.0 mg/kg/injection, schedule: Q01DX009 (ip), vehicle: Klucel (hydroxypropylcellulose) (HPC).
[8] abbreviates: dose: 200.0 mg/kg/injection, schedule: Q04DX003 (ip), vehicle: Klucel (hydroxypropylcellulose) (HPC).
Setting [9] is: dose: 400.0 mg/kg/injection, schedule: Q01DX009 (ip), vehicle: Klucel (hydroxypropylcellulose) (HPC).
Where [10] appears, read: dose: 400.0 mg/kg/injection, schedule: Q04DX003 (ip), vehicle: Klucel (hydroxypropylcellulose) (HPC).
The mark [11] stands for this setting: dose: 400.0 mg/kg/injection, schedule: Q01DX001 (ip), vehicle: saline.

In the case of `CC(O)C[P+](c1ccccc1)(c1ccccc1)c1ccccc1` (stereo unspecified), the T/C runs as follows: under setting [1], 110 % of control; under setting [2], 96 % of control.
Take `CC1=C(/C=C\C(C)=N\NC(=O)c2ccc[n+](C)c2)C(C)(C)CCC1`: the T/C is, setting by setting: (dose: 12.5 mg/kg/injection, schedule: Q01DX009 (ip), vehicle: saline) 98 % of control; (dose: 25.0 mg/kg/injection, schedule: Q01DX009 (ip), vehicle: saline) 88 % of control; (dose: 50.0 mg/kg/injection, schedule: Q01DX009 (ip), vehicle: saline) 104 % of control and 88 % of control.
For `c1ccc(-c2cc(-c3cc(-c4ccccc4)on3)no2)cc1`, the T/C runs as follows: (dose: 50.0 mg/kg/injection, schedule: Q04DX003 (ip), vehicle: saline with Tween-80) 98 % of control; under setting [3], 98 % of control; under setting [4], 101 % of control.
For `CCc1ccccc1NC(=O)C(c1ccccc1)c1ccccc1`, the T/C reads like this: under setting [5], 100 % of control; under setting [6], 100 % of control; under setting [7], 105 % of control; under setting [8], 93 % of control; under setting [9], 96 % of control; under setting [10], 90 % of control.
In the case of `COC1=C(C)CCC1=O`, the T/C was 106 % of control (dose: 37.5 mg/kg/injection, schedule: Q04DX002 (ip), vehicle: saline); 95 % of control (dose: 75.0 mg/kg/injection, schedule: Q04DX002 (ip), vehicle: saline); 98 % of control (dose: 150.0 mg/kg/injection, schedule: Q04DX002 (ip), vehicle: saline); 88 % of control (dose: 300.0 mg/kg/injection, schedule: Q04DX002 (ip), vehicle: saline).
`Nc1csnn1`: the T/C reads like this: (dose: 50.0 mg/kg/injection, schedule: Q01DX001 (ip), vehicle: carboxymethylcellulose (CMC)) 98 % of control; (dose: 100.0 mg/kg/injection, schedule: Q01DX001 (ip), vehicle: carboxymethylcellulose (CMC)) 96 % of control; (dose: 200.0 mg/kg/injection, schedule: Q01DX001 (ip), vehicle: carboxymethylcellulose (CMC)) 98 % of control.
Consider `CCOc1nc(N)c(C(N)=O)cc1C#N`, for which the T/C was 98 % of control (dose: 100.0 mg/kg/injection, schedule: Q04DX003 (ip), vehicle: saline sonified) and 105 % of control (dose: 200.0 mg/kg/injection, schedule: Q04DX003 (ip), vehicle: saline sonified).
As to `CC(=O)OCC(=O)[C@@]1(O)CC[C@H]2[C@@H]3CCC4=CC(=O)CC[C@]4(C)[C@H]3C(=O)C[C@@]21C`, the T/C was 102 % of control (dose: 12.5 mg/kg/injection, schedule: Q01DX015 (sc), vehicle: steriod suspending solution); 100 % of control (dose: 25.0 mg/kg/injection, schedule: Q01DX015 (sc), vehicle: steriod suspending solution); 100 % of control (dose: 50.0 mg/kg/injection, schedule: Q01DX015 (sc), vehicle: steriod suspending solution); 101 % of control (dose: 100.0 mg/kg/injection, schedule: Q01DX001 (sc), vehicle: steriod suspending solution); 107 % of control (dose: 100.0 mg/kg/injection, schedule: Q01DX015 (sc), vehicle: steriod suspending solution); 108 % of control (dose: 100.0 mg/kg/injection, schedule: Q04DX003 (sc), vehicle: steriod suspending solution). Besides, the T/C by setting is: (dose: 200.0 mg/kg/injection, schedule: Q01DX001 (sc), vehicle: steriod suspending solution) 92 % of control; (dose: 200.0 mg/kg/injection, schedule: Q01DX015 (sc), vehicle: steriod suspending solution) 110 % of control; (dose: 200.0 mg/kg/injection, schedule: Q04DX003 (sc), vehicle: steriod suspending solution) 102 % of control; (dose: 400.0 mg/kg/injection, schedule: Q01DX001 (sc), vehicle: steriod suspending solution) 111 % of control; (dose: 400.0 mg/kg/injection, schedule: Q01DX015 (sc), vehicle: steriod suspending solution) 104 % of control; (dose: 400.0 mg/kg/injection, schedule: Q04DX003 (sc), vehicle: steriod suspending solution) 98 % of control.
As for `COc1ccc(N=C(C(=Nc2ccc(OC)cc2)c2ccccc2)c2ccccc2)cc1`, the T/C is, setting by setting: under setting [5], 94 % of control; under setting [6], 96 % of control; under setting [7], 95 % of control; under setting [8], 95 % of control; under setting [9], 100 % of control; under setting [10], 95 % of control.
In the case of `CC(C)(C)C(=O)/C=C/c1ccc(Cl)cc1`, the T/C is 93 % of control (dose: 100.0 mg/kg/injection, schedule: Q04DX002 (ip), vehicle: gum acacia); 97 % of control (dose: 200.0 mg/kg/injection, schedule: Q04DX002 (ip), vehicle: gum acacia); 104 % of control (dose: 400.0 mg/kg/injection, schedule: Q04DX002 (ip), vehicle: gum acacia).
Take `CNC(=O)Oc1ccc(-c2ccccc2)cc1Cl`: the T/C (dose: 25.0 mg/kg/injection, schedule: Q01DX009 (ip), vehicle: saline with Tween-80) was 103 % of control and 106 % of control; the T/C (dose: 50.0 mg/kg/injection, schedule: Q01DX009 (ip), vehicle: saline with Tween-80) is 94 % of control and 111 % of control; the T/C (dose: 100.0 mg/kg/injection, schedule: Q01DX001 (ip), vehicle: saline with Tween-80) is 101 % of control; the T/C (dose: 100.0 mg/kg/injection, schedule: Q04DX002 (ip), vehicle: saline with Tween-80) was 93 % of control and 101 % of control (2×); the T/C under setting [3] was 98 % of control; the T/C (dose: 200.0 mg/kg/injection, schedule: Q01DX001 (ip), vehicle: saline with Tween-80) was 93 % of control. The T/C is 94 % of control (dose: 200.0 mg/kg/injection, schedule: Q01DX009 (ip), vehicle: saline with Tween-80); 96 % of control and 97 % of control and 100 % of control (dose: 200.0 mg/kg/injection, schedule: Q04DX002 (ip), vehicle: saline with Tween-80); 95 % of control under setting [4]; 104 % of control (dose: 400.0 mg/kg/injection, schedule: Q01DX001 (ip), vehicle: saline with Tween-80); 103 % of control and 107 % of control and 113 % of control (dose: 400.0 mg/kg/injection, schedule: Q04DX002 (ip), vehicle: saline with Tween-80); 98 % of control (dose: 400.0 mg/kg/injection, schedule: Q04DX003 (ip), vehicle: saline with Tween-80).
As for `CN(C)C(=S)NNC(=O)c1ccc(Cl)cc1`, the T/C (dose: 6.25 mg/kg/injection, schedule: Q01DX001 (ip), vehicle: saline with Tween-80) was 98 % of control; the T/C (dose: 12.5 mg/kg/injection, schedule: Q01DX001 (ip), vehicle: saline with Tween-80) is 101 % of control; the T/C (dose: 25.0 mg/kg/injection, schedule: Q01DX001 (ip), vehicle: saline with Tween-80) was 104 % of control.
For the compound `CN(N=O)C(=O)Nc1ccc(C(=O)O)cc1`, the T/C was 183 % of control (dose: 12.0 mg/kg/injection, schedule: Q01DX Z (ip), vehicle: carboxymethylcellulose (CMC)); 190 % of control (dose: 17.6 mg/kg/injection, schedule: Q01DX Z (ip), vehicle: carboxymethylcellulose (CMC)); 209 % of control (dose: 26.4 mg/kg/injection, schedule: Q01DX Z (ip), vehicle: carboxymethylcellulose (CMC)); 188 % of control and 218 % of control (dose: 40.0 mg/kg/injection, schedule: Q01DX Z (ip), vehicle: carboxymethylcellulose (CMC)); 118 % of control and 87 % of control (dose: 60.0 mg/kg/injection, schedule: Q01DX Z (ip), vehicle: carboxymethylcellulose (CMC)); 98 % of control (dose: 80.0 mg/kg/injection, schedule: Q01DX Z (ip), vehicle: carboxymethylcellulose (CMC)).
Take `COc1ccccc1/C=N/NC(=O)c1cccc2ccccc12`: the T/C under setting [11] was 87 % of control.
In the case of `CCOP(=O)(C(O)C(Cl)(Cl)Cl)C(O)C(Cl)(Cl)Cl` (stereo unspecified), the T/C reads like this: (dose: 75.0 mg/kg/injection, schedule: Q04DX003 (ip), vehicle: saline with Tween-80) 95 % of control; (dose: 150.0 mg/kg/injection, schedule: Q04DX003 (ip), vehicle: saline with Tween-80) 97 % of control.
`Cc1ccc(S(=O)(=O)Nc2ccccc2O)cc1`: the T/C reads like this: under setting [1], 102 % of control; under setting [2], 98 % of control; under setting [11], 98 % of control.
